The source of these data is publication PMC6646794 (Biochimica et Biophysica Acta. Molecular Cell Research, 2019).

One assay has as its system wild-type TRPM2. As to the kind of experiment: Whole cell patch-clamp, wild-type TRPM2 in HEK293 cells. As to conditions: for whole cell current at 37 °C / whole cell current at room temperature: 200 nM free Ca2+, maximum current at +15 mV, median, 8–13 cells per condition; for effect of raising temperature to 37 °C on current: one-way ANOVA, Bonferroni. In kind it is cell-based, human. On the procedure:
(§1) HEK293 cells were kept at 37 °C and 5% CO2 in DMEM with 4.5 g/l glucose and GlutaMax-I (Gibco) supplemented with 10% (v/v) fetal bovine serum (Biochrom). Cells were split 1:10 to 1:20 twice a week.
For patch clamp experiments wild type HEK293 cells were transfected with expression vectors for either wild type TRPM2 or TRPM2 W1355A/I1368A 24 h before the experiments. To generate the transfection complex 2.5 μg of TRPM2 expression vector and 5 μl jetPEI reagent (PolyPlus Transfection, Strasbourg, France) were incubated for 30 min in a total volume of 250 μl (150 mM NaCl). Cells were detached from the culture bottle and adjusted to a density of 2.5 × 10^5 cells/ml. After addition of the transfection complex cells were seeded at low density to 35 mm cell culture dishes. Directly before the experiment the culture medium was replaced by bath solution (in mM: 140 N‑methyl‑D‑glucamine (NMDG), 5 KCl, 3.3 MgCl2, 1 CaCl2, 5 D‑glucose, 10 HEPES, adjusted to pH 7.4 with HCl). The replacement of Na^+ in the bath solution by NMDG (for which TRPM2 is impermeable) prevents cell rupture due to excessive current and the characteristic IV curve helps to distinguish activation of the nonselective cation channel from cells becoming leaky. […] The intracellular solution contains 200 nM free Ca^2+ (calculated using MaxChelator, http://maxchelator.stanford.edu/CaEGTA-NIST.htm). Whole cell currents were recorded using a HEKA EPC-10 amplifier and PatchMaster software (HEKA Elektronik, Lamprecht, Germany). To record TRPM2 activity, repetitive voltage ramps from −85 mV to +20 mV over 140 ms were applied every 5 s for 450 s. Before and in between ramps cells were clamped at −50 mV. Series resistance compensation was set to 70%. For temperature control the 35 mm dishes were placed inside an open culture dish incubator (DH-35i, Warner Instruments) connected to a single channel heater controller (TC-324C, Warner Instruments). Cells were continuously perfused at a flow rate of 0.3 ml/min with bath solution pre-warmed in a water bath.
For statistical analysis GraphPad Prism (v7.04 and v8.0.1; GraphPad Software) was used. Currents obtained from whole cell recordings tend to be positively skewed and were therefore log-transformed to achieve normality. After transformation all groups were normally distributed as assessed by D'Agostino & Pearson normality test. Data were tested by one-way ANOVA. p values from post-hoc comparisons between groups were adjusted for multiple comparison using Bonferroni correction. A significance level of α = 0.05 was adopted.
In general terms: The patch-clamp technique gives a direct electrical read-out from membranes.

For the next assay, the system named is TRPM2. As to conditions: cited from earlier work.
The next assay has as its system TRPM2 W1355A I1368A. As to the kind of experiment: Whole cell patch-clamp, TRPM2 W1355A I1368A in HEK293 cells. Format: cell-based, human. On the procedure: as §1
The mutations W1355A and I1368A were inserted into the eukaryotic expression vector for TRPM2 (pIRES2-EGFP-TRPM2) by two sequential rounds of QuikChange mutagenesis using the following primer pairs: for W1355A: 5′-[…]-3′ and 5′-[…]-3′, for I1368A: 5′- […]-3′ and 5′-[…]-3′. The full open reading frame was confirmed by DNA sequencing (Eurofins MWG Operon, Ebersberg, Germany).
For patch clamp experiments wild type HEK293 cells were transfected with expression vectors for either wild type TRPM2 or TRPM2 W1355A/I1368A 24 h before the experiments. […] The intracellular solution contains 200 nM free Ca^2+ (calculated using MaxChelator, http://maxchelator.stanford.edu/CaEGTA-NIST.htm). Whole cell currents were recorded using a HEKA EPC-10 amplifier and PatchMaster software (HEKA Elektronik, Lamprecht, Germany). […]
For statistical analysis GraphPad Prism (v7.04 and v8.0.1; GraphPad Software) was used. […] After transformation all groups were normally distributed as assessed by D'Agostino & Pearson normality test. […]

A further assay relates to NudT9H domain. The experiment in a line: Thermal unfolding of NudT9H by nDSF. As to conditions: NudT9H with ADPR versus without. Format: binding, human. (Differential scanning fluorimetry follows unfolding on heating by fluorescence.)
Setting [1] is: room temperature, 100 μM agonist in pipette.
Setting [2] is: wild-type TRPM2, 100 μM agonist in pipette, room temperature to 37 °C.

Where two headings read alike, the source gives them in different places. Some results are limits rather than exact numbers.

Consider `Nc1ncnc2c1ncn2[C@H]1C[C@H](O)[C@@H](COP(=O)(O)OP(=O)(O)OC[C@H]2OC(O)[C@H](O)[C@@H]2O)O1` (some centres unmarked) [2′-deoxy-ADPR, 2′-deoxy-adenosine diphosphate (ADP)-ribose], for which the “whole cell current at 37 °C” value in the assay with wild-type TRPM2 (100 μM agonist in pipette) worked out at 1.4 nA. Also, in the assay with wild-type TRPM2 (setting [1]), the “whole cell current at room temperature” value turned out to be 4.5 nA. The “effect of raising temperature to 37 °C on current” value in the assay on wild-type TRPM2 (setting [2]) was “did not significantly increase”. In addition, the “current compared to ADPR” value is listed as “significantly higher at room temperature” with wild-type TRPM2 (wild-type TRPM2, 100 μM in pipette, room temperature, compared with 100 μM ADPR); “did not significantly differ from that with ADPR” with TRPM2 W1355A I1368A (100 μM in pipette, room temperature and 37 °C). Also, in the assay with TRPM2 (basal Ca2+ concentrations, ref [22]), the “TRPM2 current compared with ADPR” value is “elicits much higher TRPM2 currents than ADPR”. For the same molecule, the “Ca2+ sensitivity of TRPM2 activation” value with TRPM2 (ref [22]) is listed as “less sensitive to Ca^2+”.
Regarding Adenosine diphosphate ribose [ADPR], the “stabilizing effect on NudT9H” value in the assay with NudT9H domain is listed as “ruling out a stabilizing effect of ADPR on NudT9H”. The “increase of current from room temperature to 37 °C” value in the assay on wild-type TRPM2 (100 μM agonist in pipette, room temperature to 37 °C, median values) is listed as above 10 fold. The “whole cell current at 37 °C” value with wild-type TRPM2 (100 μM agonist in pipette) is on record as 2.2 nA. The “whole cell current at room temperature” value in the assay on wild-type TRPM2 (setting [1]) was found to be 150 pA. Besides, the “effect of raising temperature to 37 °C on current” value is given as “significantly increased” in the assay on wild-type TRPM2 (setting [2]) and “no significant increase” in the assay with TRPM2 W1355A I1368A (100 μM agonist in pipette, room temperature to 37 °C, one-way ANOVA, Bonferroni). Moreover, the TRPM2 agonism result in the assay on TRPM2 (ref [20]) was “activates the channel”. In addition, the “Ca2+ dependence of TRPM2 activation by ADPR” value with TRPM2 (removal of both intra- and extracellular Ca2+, ref [15]) is listed as “completely prevents activation of the channel by ADPR”. Also, the “effect of temperature >35 °C on evoked TRPM2 current” value in the assay on TRPM2 (temperatures >35 °C, ref [17]) was “significantly potentiates the current evoked by ADPR”.
As to ADP-ribose-2′-phosphate [2′-P-ADPR], in the assay on TRPM2 (ref [21]), the TRPM2 agonism entry is on record as “acts as partial agonist”.
